27 compounds from US20250282768A1 (Janssen Pharmaceutica NV, priority 2022, published 2025) can be followed below.

Where only a bound is given, the exact number is not on record here.

The test has as its system p-IKKa levels in L363 (NIK translocated multiple myeloma) cells. The experiment in a line: Assay 2: Effect of compounds on p-IKKa levels in L363 (NIK translocated multiple myeloma) cells. The conditions noted are these: Homo sapiens, L-363, 6 h, read-out: Assay 2 IC50 (nM), p-IKKa (Ser 176/180) in BAFF stimulated L363 cells with MG132, 6 h; average if tested more than once. The format is cell-based. A digest of the protocol: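 Read-out is p-IKKa Ser176/180 by AlphaLISA SureFire in lysates. Cells were BAFF-primed (250 ng/ml) overnight or left unstimulated, then exposed 6 h at 37 °C to compound with MG132 (10 μM), 0.3% DMSO. IC50 from sigmoidal curve fit, normalized between stimulated and unstimulated controls.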
Consider `CN1CC[C@@](O)(c2cc(-c3cccc(-c4ccnc(Nc5ccn(CCN)n5)n4)n3)no2)C1=O` [Example 204, (R)-3-(3-(6-(2-((1-(2-Aminoethyl)-1H-pyrazol-3-yl)amino)pyrimidin-4-yl)pyridin-2-yl)isoxazol-5-yl)-3-hydroxy-1-methylpyrrolidin-2-one], for which the IC50 was 50 to 500 nM.

On to `CN1CC[C@@](O)(c2cn(-c3cccc(-c4ccnc(Nc5cn(C)nc5OCC(F)F)n4)n3)nn2)C1=O` [Example 205, (R)-3-(1-(6-(2-((3-(2,2-Difluoroethoxy)-1-methyl-1H-pyrazol-4-yl)amino)pyrimidin-4-yl)pyridin-2-yl)-1H-1,2,3-triazol-4-yl)-3-hydroxy-1-methylpyrrolidin-2-one], for which the IC50 was less than 50 nM.

On to `CN1CC[C@@](O)(c2cn(-c3cccc(-c4ccnc(Nc5cnn(C)c5)n4)n3)nn2)C1=O` [Example 206, (R)-3-Hydroxy-1-methyl-3-(1-(6-(2-((1-methyl-1H-pyrazol-4-yl)amino)pyrimidin-4-yl)pyridin-2-yl)-1H-1,2,3-triazol-4-yl)pyrrolidin-2-one], for which the IC50 is less than 50 nM.

As for `Cc1cc(-c2cccc(-c3cc([C@]4(O)CCN(C)C4=O)on3)n2)nc(Nc2cnn(C)c2)n1` [Example 207, (R)-3-Hydroxy-1-methyl-3-(3-(6-(6-methyl-2-((1-methyl-1H-pyrazol-4-yl)amino)pyrimidin-4-yl)pyridin-2-yl)isoxazol-5-yl)pyrrolidin-2-one], the IC50 was more than 500 nM.

`Cc1cnc(Nc2cnn(C)c2)nc1-c1cccc(-c2cc([C@]3(O)CCN(C)C3=O)on2)n1` [Example 208, (R)-3-Hydroxy-1-methyl-3-(3-(6-(5-methyl-2-((1-methyl-1H-pyrazol-4-yl)amino)pyrimidin-4-yl)pyridin-2-yl)isoxazol-5-yl)pyrrolidin-2-one]: the IC50 is more than 500 nM.

As to `[2H]c1cc(-c2cccc(-c3cc([C@]4(O)CCN(C)C4=O)on3)n2)nc(Nc2ccn(C)n2)n1` [Example 209, (R)-3-Hydroxy-1-methyl-3-(3-(6-(2-((1-methyl-1H-pyrazol-3-yl)amino)pyrimidin-4-yl-6-d)pyridin-2-yl)isoxazol-5-yl)pyrrolidin-2-one], the IC50 was less than 50 nM.

`[2H]c1cc(-c2cccc(-c3cc([C@]4(O)CCN(C)C4=O)on3)n2)nc(Nc2ccn(CC)n2)n1` [Example 210, (R)-3-(3-(6-(2-((1-Ethyl-1H-pyrazol-3-yl)amino)pyrimidin-4-yl-6-d)pyridin-2-yl)isoxazol-5-yl)-3-hydroxy-1-methylpyrrolidin-2-one]: the IC50 was less than 50 nM.

As for `Cc1nn(C(F)F)cc1Nc1nccc(-c2cccc(-c3cc([C@]4(O)CCN(C)C4=O)on3)n2)n1` [Example 211, (R)-3-(3-(6-(2-((1-(Difluoromethyl)-3-methyl-1H-pyrazol-4-yl)amino)pyrimidin-4-yl)pyridin-2-yl)isoxazol-5-yl)-3-hydroxy-1-methylpyrrolidin-2-one], the IC50 is less than 50 nM.

Turning to `CN1CC[C@@](O)(c2cc(-c3cccc(-c4ccnc(Nc5ccn(C6CC6)n5)n4)n3)no2)C1=O` [Example 212, (R)-3-(3-(6-(2-((1-Cyclopropyl-1H-pyrazol-3-yl)amino)pyrimidin-4-yl)pyridin-2-yl)isoxazol-5-yl)-3-hydroxy-1-methylpyrrolidin-2-one], the IC50 is less than 50 nM.

With `Cc1cc(Nc2nccc(-c3cccc(-c4cc([C@]5(O)CCN(C)C5=O)no4)n3)n2)ccn1` [Example 213, (R)-3-Hydroxy-1-methyl-3-(5-(6-(2-((2-methylpyridin-4-yl)amino)pyrimidin-4-yl)pyridin-2-yl)isoxazol-3-yl)pyrrolidin-2-one], the IC50 is 50 to 500 nM.

As to `CN1CC[C@@](O)(c2cn(-c3cccc(-c4ccnc(Nc5ccn(CC(F)F)n5)n4)n3)nn2)C1=O` [Example 214, (R)-3-(1-(6-(2-((1-(2,2-Difluoroethyl)-1H-pyrazol-3-yl)amino)pyrimidin-4-yl)pyridin-2-yl)-1H-1,2,3-triazol-4-yl)-3-hydroxy-1-methylpyrrolidin-2-one], the IC50 was less than 50 nM.

On to `CN1CC[C@@](O)(c2cc(-c3cccc(-c4ccnc(Nc5cnn(C6CNC6)c5)n4)n3)no2)C1=O` [Example 215, (R)-3-(3-(6-(2-((1-(Azetidin-3-yl)-1H-pyrazol-4-yl)amino)pyrimidin-4-yl)pyridin-2-yl)isoxazol-5-yl)-3-hydroxy-1-methylpyrrolidin-2-one], for which the IC50 is more than 500 nM.

Take `CN1CC[C@@](O)(c2cc(-c3cccc(-c4ccnc(Nc5cnn6ncccc56)n4)n3)no2)C1=O` [Example 216, (R)-3-Hydroxy-1-methyl-3-(3-(6-(2-(pyrazolo[1,5-b]pyridazin-3-ylamino)pyrimidin-4-yl)pyridin-2-yl)isoxazol-5-yl)pyrrolidin-2-one]: the IC50 is less than 50 nM.

`CCn1ncc(Nc2nccc(-c3cccc(-c4cc([C@]5(O)CCN(C)C5=O)on4)n3)n2)c1C` [Example 217, (R)-3-(3-(6-(2-((1-Ethyl-5-methyl-1H-pyrazol-4-yl)amino)pyrimidin-4-yl)pyridin-2-yl)isoazol-5-yl)-3-hydroxy-1-methylpyrrolidin-2-one]: the IC50 is less than 50 nM.

For the compound `CN1CC[C@@](O)(c2cc(-c3cccc(-c4ccnc(Nc5cnc6cccnn56)n4)n3)no2)C1=O` [Example 218, (R)-3-Hydroxy-3-(3-(6-(2-(imidazo[1,2-b]pyridazin-3-ylamino)pyrimidin-4-yl)pyridin-2-yl)isoxazol-5-yl)-1-methylpyrrolidin-2-one], the IC50 is more than 500 nM.

As for `CN1CC[C@@](O)(c2cc(-c3cccc(-c4ccnc(Nc5cnc6ccccn56)n4)n3)no2)C1=O` [Example 219, (R)-3-Hydroxy-3-(3-(6-(2-(imidazo[1,2-a]pyridin-3-ylamino)pyrimidin-4-yl)pyridin-2-yl)isoxazol-5-yl)-1-methylpyrrolidin-2-one], the IC50 is more than 500 nM.

For the compound `CCn1ncc(Nc2nccc(-c3cccc(-c4cc([C@]5(O)CCN(C)C5=O)on4)n3)n2)c1OC` [Example 220, (R)-3-(3-(6-(2-((1-Ethyl-5-methoxy-1H-pyrazol-4-yl)amino)pyrimidin-4-yl)pyridin-2-yl)isoxazol-5-yl)-3-hydroxy-1-methylpyrrolidin-2-one], the IC50 lay within 50 to 500 nM.

In the case of `CN1CC[C@@](O)(c2cc(-c3cccc(-c4ccnc(Nc5cnn6c5CCC6)n4)n3)no2)C1=O` [Example 221, (R)-3-(3-(6-(2-((5,6-Dihydro-4H-pyrrolo[1,2-b]pyrazol-3-yl)amino)pyrimidin-4-yl)pyridin-2-yl)isoxazol-5-yl)-3-hydroxy-1-methylpyrrolidin-2-one], the IC50 is less than 50 nM.

Regarding `Cc1c(Nc2nccc(-c3cccc(-c4cc([C@]5(O)CCN(C)C5=O)on4)n3)n2)cnn1C` [Example 222, (R)-3-(3-(6-(2-((1,5-Dimethyl-1H-pyrazol-4-yl)amino)pyrimidin-4-yl)pyridin-2-yl)isoxazol-5-yl)-3-hydroxy-1-methylpyrrolidin-2-one], the IC50 was less than 50 nM.

Consider `Cc1c(Nc2nccc(-c3cccc(-c4cc([C@@]5(O)C(=O)N(C)CC5(F)F)on4)n3)n2)cnn1C` [Example 223, (R)-3-(3-(6-(2-((1,5-Dimethyl-1H-pyrazol-4-yl)amino)pyrimidin-4-yl)pyridin-2-yl)isoxazol-5-yl)-4,4-difluoro-3-hydroxy-1-methylpyrrolidin-2-one], for which the IC50 was less than 50 nM.

In the case of `Cc1c(Nc2nccc(-c3cccc(-c4cc([C@]5(O)CCN(C)C5=O)on4)n3)n2)cnn1CC(F)F` [Example 225, (R)-3-(3-(6-(2-((1-(2,2-Difluoroethyl)-5-methyl-1H-pyrazol-4-yl)amino)pyrimidin-4-yl)pyridin-2-yl)isoxazol-5-yl)-3-hydroxy-1-methylpyrrolidin-2-one], the IC50 is less than 50 nM.

Turning to `CCc1c(Nc2nccc(-c3cccc(-c4cc([C@]5(O)CCN(C)C5=O)on4)n3)n2)cnn1C` [Example 226, (R)-3-(3-(6-(2-((5-Ethyl-1-methyl-1H-pyrazol-4-yl)amino)pyrimidin-4-yl)pyridin-2-yl)isoxazol-5-yl)-3-hydroxy-1-methylpyrrolidin-2-one], the IC50 is less than 50 nM.

As to `Cc1c(Nc2nccc(-c3cccc(-c4cc([C@]5(O)CCN(C)C5=O)on4)n3)n2)cnn1C(F)F` [Example 227, (R)-3-(3-(6-(2-((1-(Difluoromethyl)-5-methyl-1H-pyrazol-4-yl)amino)pyrimidin-4-yl)pyridin-2-yl)isoxazol-5-yl)-3-hydroxy-1-methylpyrrolidin-2-one], the IC50 is less than 50 nM.

As for `CN1CC[C@@](O)(c2cc(-c3cccc(-c4ccnc(Nc5cnn(C)c5C5CC5)n4)n3)no2)C1=O` [Example 228, (R)-3-(3-(6-(2-((5-Cyclopropyl-1-methyl-1H-pyrazol-4-yl)amino)pyrimidin-4-yl)pyridin-2-yl)isoxazol-5-yl)-3-hydroxy-1-methylpyrrolidin-2-one], the IC50 is less than 50 nM.

On to `Cc1nscc1Nc1nccc(-c2cccc(-c3cc([C@]4(O)CCN(C)C4=O)on3)n2)n1` [Example 229, (R)-3-Hydroxy-1-methyl-3-(3-(6-(2-((3-methylisothiazol-4-yl)amino)pyrimidin-4-yl)pyridin-2-yl)isoxazol-5-yl)pyrrolidin-2-one], for which the IC50 is less than 50 nM.

Turning to `COc1cn([C@H]2C[C@@H](O)C2)nc1Nc1nccc(-c2cccc(-c3cc([C@]4(O)CCN(C)C4=O)on3)n2)n1` [Example 230, (R)-3-Hydroxy-3-(3-(6-(2-((1-((1s,3s)-3-hydroxycyclobutyl)-4-methoxy-1H-pyrazol-3-yl)amino)pyrimidin-4-yl)pyridin-2-yl)isoxazol-5-yl)-1-methylpyrrolidin-2-one], the IC50 is less than 50 nM.

Turning to `COc1cn([C@H]2C[C@H](O)C2)nc1Nc1nccc(-c2cccc(-c3cc([C@]4(O)CCN(C)C4=O)on3)n2)n1` [Example 231, (R)-3-Hydroxy-3-(3-(6-(2-((1-((1r,3r)-3-hydroxycyclobutyl)-4-methoxy-1H-pyrazol-3-yl)amino)pyrimidin-4-yl)pyridin-2-yl)isoxazol-5-yl)-1-methylpyrrolidin-2-one], the IC50 was less than 50 nM.
